Results from patent US8912202B2, “N-(benzimimdazol-2-yl)-cyclopropane carboxamides as lysophosphatidic acid antagonists” (Merck Patent GmbH, priority 2011, dated 2014).

target: T1, LPA2R (Homo sapiens, UniProt Q9HBW0); assay: LPA2R-Calciumflux assay (FLIPR, intracellular calcium mobilisation after LPA); format: cell-based; conditions: U2OS cells recombinant expressing LPA2R; antagonism of LPA-induced calcium flux; racemate of the two trans enantiomers unless marked enantiomer
T1 construct: expressed in transfected cells; host or cells: U2OS
T1 sequence (Q9HBW0 whole entry): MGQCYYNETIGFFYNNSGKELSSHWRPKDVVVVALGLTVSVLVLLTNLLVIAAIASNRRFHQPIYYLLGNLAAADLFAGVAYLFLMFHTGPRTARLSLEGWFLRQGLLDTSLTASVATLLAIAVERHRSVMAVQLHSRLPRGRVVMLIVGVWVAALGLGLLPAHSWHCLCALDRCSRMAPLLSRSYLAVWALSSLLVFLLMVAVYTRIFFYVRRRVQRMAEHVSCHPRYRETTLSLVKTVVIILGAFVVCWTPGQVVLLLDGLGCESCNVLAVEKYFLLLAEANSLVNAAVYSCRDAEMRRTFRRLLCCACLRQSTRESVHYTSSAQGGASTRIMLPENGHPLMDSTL
From the text: The assay detects intra cellular calcium which is generated by cells upon activation of the LPA2 receptor by its ligand LPA. This transient calcium mobilization can be monitored using a commercial calcium detection kit (e.g. from Molecular Devices). The main component of such a kit is a dye, which becomes fluorescent when calcium is present—a transient fluorescence signal after addition of a ligand to a test well are the result. Readers like the FLIPR (Molecular Devices) can be used to monitor such transient “Ca-flux” signals.
The signals are calculated according to peak maximum minus base line.
Compounds which are antagonists of LPA lead to a decreased mobilisation of intracellular calcium and thus to a lower signal. The assay is performed in microplates (384 wells per plate).
LPA2R-Calciumflux Assay Protocol
The assay is run according to the following procedure:
50 uL seed cells (10000 cells/well in DMEM buffer)
• Incubate 24 h at 37° C., 10% CO2 • aspirate medium 50 uL add calcium dye 1×HBSS/HEPES buffer • incubate 1 h at 37° C. (“loading”) • equilibrate 10 min at RT 5 uL add compounds in HEPES buffer • shake 10 sec. at 1000 rpm • incubate 15 min at RT 20 uL add LPA (in the FLIPR Tetra) in Krebs-buffer/BSA & measurement
The cells are seeded in DMEM buffer (DMEM, 10% FCS, 10 mM HEPES, 1% Pen/Strep).
Dye loading is done in HBSS/HEPES buffer (100 mL 10×HBSS+20 mL 1M HEPES+880 mL water, pH 7.4)
The LPA is added in Krebs/BSA buffer (120 mM NaCl, 5 mM KCl, 0.62 mM MgSO4, 1.8 mM CaCl2, 10 mM HEPES, 6 mM D(+)-Glucose, 0.2% BSA, pH 7.4).
The compounds are pre-diluted in HEPES buffer (20 mM, pH 7.4), whereby the final DMSO content in the assay is kept at 1%. The compounds are pre-diluted in order to generate dose response series on the microplates. The dose response series consist of 10 concentrations for each compound from 30 uM final to 1 nM final. From all compound wells the resulting signals are referred to control wells (located on each plate besides the compound wells) in terms of % activity.
From these % activity values—along with the corresponding compound concentrations—IC50 values are fitted for each compound using standard fitting programs such as Graphpad Prism. Here the method “log(inhibitor) vs. response—Variable slope” is used.

| SMILES | IC50 [nM] |
| --- | --- |
| O=C(OCc1ccccc1)C1CCN(CNc2cccc3[nH]c(NC(=O)C4CC4c4ccccc4)nc23)C1 (racemic) [1-({2-[(2-Phenyl-cyclopropane-carbonyl)-amino]-1H-benzoimidazol-4-ylamino)-methyl)-pyrrolidine-3-carboxylic acid benzyl ester] | 1000 to 10000 |
| O=C(Nc1nc2ccccc2[nH]1)C1C(c2ccccc2)C1(F)F (racemic) [2,2-Difluoro-3-phenyl-cyclopropane-carboxylic acid (1H-benzoimidazol-2-yl)-amide] | 100 to 1000 |
| O=C(Nc1nc2ccc(Cl)cc2[nH]1)C1C(c2ccccc2)C1(F)F (racemic) [2,2-Difluoro-3-phenyl-cyclopropane-carboxylic acid (6-chloro-1H-benzoimidazol-2-yl)-amide] | 10 to 100 |
| N#Cc1ccc2nc(NC(=O)C3C(c4ccccc4)C3(F)F)[nH]c2c1 (racemic) [2,2-Difluoro-3-phenyl-cyclopropane-carboxylic acid (6-cyano-1H-benzoimidazol-2-yl)-amide] | 100 to 1000 |
| O=C(Nc1nc2ccc(C(F)(F)F)cc2[nH]1)C1C(c2ccccc2)C1(F)F (racemic) [2,2-Difluoro-3-phenyl-cyclopropane-carboxylic acid (6-trifluoromethyl-1H-benzoimidazol-2-yl)-amide] | 100 to 1000 |
| CC1(C)C(C(=O)Nc2nc3ccccc3[nH]2)C1c1ccccc1 (racemic) [2,2-Dimethyl-3-phenyl-cyclopropane-carboxylic acid (1H-benzoimidazol-2-yl)-amide] | > 10000 |
| CC1(C)C(C(=O)Nc2nc3ccc(Cl)cc3[nH]2)C1c1ccccc1 (racemic) [2,2-Dimethyl-3-phenyl-cyclopropane-carboxylic acid (6-chloro-1H-benzoimidazol-2-yl)-amide] | > 10000 |
| CC1(C)C(C(=O)Nc2nc3ccc(C#N)cc3[nH]2)C1c1ccccc1 (racemic) [2,2-Dimethyl-3-phenyl-cyclopropane-carboxylic acid (6-cyano-1H-benzoimidazol-2-yl)-amide] | > 10000 |
| CC1(C)C(C(=O)Nc2nc3ccc(C(F)(F)F)cc3[nH]2)C1c1ccccc1 (racemic) [2,2-Dimethyl-3-phenyl-cyclopropane-carboxylic acid (6-trifluoromethyl-1H-benzoimidazol-2-yl)-amide] | > 10000 |
| O=C(Nc1nc2ccccc2[nH]1)C1CC1c1cccc(Cl)c1Cl (racemic) [2-(2,3-Dichloro-phenyl)-cyclopropane-carboxylic acid (1H-benzoimidazol-2-yl)-amide] | 100 to 1000 |
| O=C(Nc1nc2ccccc2[nH]1)C1CC1c1c(Cl)cccc1Cl (racemic) [2-(2,6-Dichloro-phenyl)-cyclopropane-carboxylic acid (1H-benzoimidazol-2-yl)-amide] | > 10000 |
| O=C(Nc1nc2ccccc2[nH]1)C1CC1c1ccccc1Cl (racemic) [2-(2-Chloro-phenyl)-cyclopropane-carboxylic acid (1H-benzoimidazol-2-yl)-amide] | 10 to 100 |
| N#Cc1ccc2nc(NC(=O)C3CC3c3ccccc3Cl)[nH]c2c1 (racemic) [2-(2-Chloro-phenyl)-cyclopropane-carboxylic acid (6-cyano-1H-benzoimidazol-2-yl)-amide] | 10 to 100 |
| O=C(Nc1nc2ccc(C(F)(F)F)cc2[nH]1)C1CC1c1ccccc1Cl (racemic) [2-(2-Chloro-phenyl)-cyclopropane-carboxylic acid (6-trifluoromethyl-1H-benzoimidazol-2-yl)-amide] | 10 to 100 |
| CN(C)c1ccccc1C1CC1C(=O)Nc1nc2ccccc2[nH]1 (racemic) [2-(2-Dimethylamino-phenyl)-cyclopropane-carboxylic acid (1H-benzoimidazol-2-yl)-amide] | 100 to 1000 |
| O=C(Nc1nc2ccccc2[nH]1)C1CC1c1ccccc1F (racemic) [2-(2-Fluoro-phenyl)-cyclopropane-carboxylic acid (1H-benzoimidazol-2-yl)-amide] | 100 to 1000 |
| O=C(Nc1nc2ccccc2[nH]1)C1CC1c1ccccc1C(F)(F)F (racemic) [2-(2-Trifluoromethyl-phenyl)-cyclopropane-carboxylic acid (1H-benzoimidazol-2-yl)-amide] | > 10000 |
| O=C(Nc1nc2ccccc2[nH]1)C1CC1c1cccc(Br)c1 (racemic) [2-(3-Bromo-phenyl)-cyclopropane-carboxylic acid (1H-benzoimidazol-2-yl)-amide] | 10 to 100 |

| SMILES | IC50 [nM] |
| --- | --- |
| O=C(Nc1nc2ccccc2[nH]1)C1CC1c1cccc(Cl)c1 (racemic) [2-(3-Chloro-phenyl)-cyclopropane-carboxylic acid (1H-benzoimidazol-2-yl)-amide] | 100 to 1000 |
| N#Cc1cccc(C2CC2C(=O)Nc2nc3ccccc3[nH]2)c1 (racemic) [2-(3-Cyano-phenyl)-cyclopropane-carboxylic acid (1H-benzoimidazol-2-yl)-amide] | 100 to 1000 |
| CN(C)c1cccc(C2CC2C(=O)Nc2nc3ccccc3[nH]2)c1 (racemic) [2-(3-Dimethylamino-phenyl)-cyclopropane-carboxylic acid (1H-benzoimidazol-2-yl)-amide] | 100 to 1000 |
| O=C(Nc1nc2ccccc2[nH]1)C1CC1c1cccc(F)c1 (racemic) [2-(3-Fluoro-phenyl)-cyclopropane-carboxylic acid (1H-benzoimidazol-2-yl)-amide] | 10 to 100 |
| O=C(Nc1nc2cc(Cl)cnc2[nH]1)C1CC1c1cccc(F)c1 (racemic) [2-(3-Fluoro-phenyl)-cyclopropane-carboxylic acid (6-chloro-3H-imidazo[4,5-b]pyridin-2-yl)-amide] | < 10 |
| N#Cc1ccc2nc(NC(=O)C3CC3c3cccc(F)c3)[nH]c2c1 (racemic) [2-(3-Fluoro-phenyl)-cyclopropane-carboxylic acid (6-cyano-1H-benzoimidazol-2-yl)-amide] | < 10 |
| COc1cccc(C2CC2C(=O)Nc2nc3ccccc3[nH]2)c1 (racemic) [2-(3-Methoxy-phenyl)-cyclopropane-carboxylic acid (1H-benzoimidazol-2-yl)-amide] | > 10000 |
| O=C(Nc1nc2ccccc2[nH]1)C1CC1c1cccc([N+](=O)[O-])c1 (racemic) [2-(3-Nitro-phenyl)-cyclopropane-carboxylic acid (1H-benzoimidazol-2-yl)-amide] | 10 to 100 |
| O=C(Nc1nc2ccccc2[nH]1)C1CC1c1ccc(Cl)cc1 (racemic) [2-(4-Chloro-phenyl)-cyclopropane-carboxylic acid (1H-benzoimidazol-2-yl)-amide] | > 10000 |
| CN(C)c1ccc(C2CC2C(=O)Nc2nc3ccccc3[nH]2)cc1 (racemic) [2-(4-Dimethylamino-phenyl)-cyclopropane-carboxylic acid (1H-benzoimidazol-2-yl)-amide] | 1000 to 10000 |
| O=C(Nc1nc2ccccc2[nH]1)C1CC1c1ccc(F)cc1 (racemic) [2-(4-Fluoro-phenyl)-cyclopropane-carboxylic acid (1H-benzoimidazol-2-yl)-amide] | 10 to 100 |
| COc1ccc(C2CC2C(=O)Nc2nc3ccccc3[nH]2)cc1 (racemic) [2-(4-Methoxy-phenyl)-cyclopropane-carboxylic acid (1H-benzoimidazol-2-yl)-amide] | 1000 to 10000 |
| O=C(Nc1nc2ccccc2[nH]1)C1CC1c1ccc(C(F)(F)F)cc1 (racemic) [2-(4-Trifluoromethyl-phenyl)-cyclopropane-carboxylic acid (1H-benzoimidazol-2-yl)-amide] | 1000 to 10000 |
| CC(C)(C)c1ccc(C2CC2C(=O)Nc2nc3ccccc3[nH]2)cc1 (racemic) [2-(4-tert-Butyl-phenyl)-cyclopropane-carboxylic acid (1H-benzoimidazol-2-yl)-amide] | > 10000 |
| O=C(Nc1nc2ccccc2[nH]1)C1CC1c1cc(Br)ccc1F (racemic) [2-(5-Bromo-2-fluoro-phenyl)-cyclopropane-carboxylic acid (1H-benzoimidazol-2-yl)-amide] | 10 to 100 |
| Cn1c(NC(=O)C2CC2c2ccccc2)nc2ccccc21 (racemic) [2-Phenyl-cyclopropane-carboxylic acid (1-methyl-1H-benzoimidazol-2-yl)-amide] | > 10000 |
| O=C(Nc1nc2ccccc2[nH]1)C1CC1c1ccccc1 (racemic) [2-Phenyl-cyclopropane-carboxylic acid (1H-benzoimidazol-2-yl)-amide] | 10 to 100 |
| CN(C(=O)C1CC1c1ccccc1)c1nc2ccccc2[nH]1 (racemic) [2-Phenyl-cyclopropane-carboxylic acid (1H-benzoimidazol-2-yl)-methyl-amide] | 1000 to 10000 |
